Assay results as given in US6914045B2, “Glycopeptide antibiotics” (Wyeth Holdings Corporation, priority 2001, dated 2005).
≈ marks a conversion by molar mass, not a printed value.

What was measured:
Assay in all cases: in vitro antibacterial evaluation, MIC by broth dilution
Assay type in all cases: cell-based
Staphylococcus sp. = conditions: broth dilution, 18 hours at 35° C.; for MIC Staphylococcus aureus (GC 1131): strain GC 1131
Summary of the method: (§1)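 Read-out: the lowest concentration at which the test strain fails to grow. Serial dilutions (64-0.06 μg/mL) in Muller-Hinton II […], 5×10^5 CFU/mL inoculum, NCCLS M7-A2 procedure.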

Enterococcus sp. = conditions: broth dilution, 18 hours at 35° C.
Summary of the method: as §1

Streptococcus sp. = conditions: broth dilution, 18 hours at 35° C.
Summary of the method: as §1

Escherichia coli = conditions: 18 hours at 35° C.

- MIC Staphylococcus aureus (GC 1131) (Staphylococcus sp.; inoculum 5×10^5 CFU/mL): 2 mg/L (≈ 1.45 µM)
- MIC Staphylococcus aureus (ATCC 29213) (Staphylococcus sp.; strain ATCC 29213): 1 mg/L (≈ 0.727 µM)
- MIC Staphylococcus aureus (GC 1131) (Staphylococcus sp.): 2 mg/L (≈ 1.45 µM)
- MIC Staphylococcus aureus (GC 3051) (Staphylococcus sp.; strain GC 3051): 2 mg/L (≈ 1.45 µM)
- MIC Staphylococcus aureus (GC 3053) (Staphylococcus sp.; strain GC 3053): 4 mg/L (≈ 2.91 µM)
- MIC Staphylococcus aureus (GC 4541) (Staphylococcus sp.; strain GC 4541): 1 mg/L (≈ 0.727 µM)
- MIC Staphylococcus aureus (GC 4542) (Staphylococcus sp.; strain GC 4542): 1 mg/L (≈ 0.727 µM)
- MIC Staphylococcus aureus-SMITH (GC 4543) (Staphylococcus sp.; strain GC 4543): 2 mg/L (≈ 1.45 µM)
- MIC Staphylococcus aureus (GC 4544) (Staphylococcus sp.; strain GC 4544): 2 mg/L (≈ 1.45 µM)
- MIC Staphylococcus aureus (GC 4545) (Staphylococcus sp.; strain GC 4545): 1 mg/L (≈ 0.727 µM)
- MIC Coagulase Negative Staphylococcus (GC 4547) (Staphylococcus sp.; strain GC 4547): 2 mg/L (≈ 1.45 µM)
- MIC Coagulase Negative Staphylococcus (GC 4548) (Staphylococcus sp.; strain GC 4548): 1 mg/L (≈ 0.727 µM)
- MIC Coagulase Negative Staphylococcus (GC 4549) (Staphylococcus sp.; strain GC 4549): 1 mg/L (≈ 0.727 µM)
- MIC Coagulase Negative Staphylococcus (GC 4551) (Staphylococcus sp.; strain GC 4551): 2 mg/L (≈ 1.45 µM)
- MIC Coagulase Negative Staphylococcus (GC 6257) (Staphylococcus sp.; strain GC 6257): 1 mg/L (≈ 0.727 µM)
- MIC Enterococcus avium (GC 4558) (Enterococcus sp.): 8 mg/L (≈ 5.82 µM)
- MIC Enterococcus faecalis (ATCC 29212) (Enterococcus sp.): 8 mg/L (≈ 5.82 µM)
- MIC Enterococcus faecalis (GC 2242) (Enterococcus sp.): 4 mg/L (≈ 2.91 µM)
- MIC Enterococcus faecalis (GC 2691) (Enterococcus sp.): 8 mg/L (≈ 5.82 µM)
- MIC Enterococcus faecalis (GC 3059) (Enterococcus sp.): 8 mg/L (≈ 5.82 µM)
- MIC Enterococcus faecalis (GC 4552) (Enterococcus sp.): 8 mg/L (≈ 5.82 µM)
- MIC Enterococcus faecalis (GC 4553) (Enterococcus sp.): 8 mg/L (≈ 5.82 µM)
- MIC Enterococcus faecalis (GC 4554) (Enterococcus sp.): 8 mg/L (≈ 5.82 µM)
- MIC Enterococcus faecalis (GC 6189) (Enterococcus sp.): 8 mg/L (≈ 5.82 µM)
- MIC Enterococcus faecium (GC 2243) (Enterococcus sp.): 8 mg/L (≈ 5.82 µM)
- MIC Enterococcus faecium (GC 4556) (Enterococcus sp.): 4 mg/L (≈ 2.91 µM)
- MIC Enterococcus faecium (GC 4557) (Enterococcus sp.): 4 mg/L (≈ 2.91 µM)
- MIC Enterococcus faecalis (ATCC 29212) (Enterococcus sp.; inoculum 5×10^5 CFU/mL, strain ATCC 29212): 8 mg/L (≈ 5.82 µM)
- MIC Enterococcus faecalis (GC 2242) (Enterococcus sp.; inoculum 5×10^5 CFU/mL, strain GC 2242): 4 mg/L (≈ 2.91 µM)
- MIC Enterococcus faecium (GC 2243) (Enterococcus sp.; inoculum 5×10^5 CFU/mL, strain GC 2243): 8 mg/L (≈ 5.82 µM)
- MIC Enterococcus faecalis (GC 2691) (Enterococcus sp.; inoculum 5×10^5 CFU/mL, strain GC 2691): 8 mg/L (≈ 5.82 µM)
- MIC Enterococcus faecalis (GC 3059) (Enterococcus sp.; inoculum 5×10^5 CFU/mL, strain GC 3059): 8 mg/L (≈ 5.82 µM)
- MIC Enterococcus faecalis (GC 4552) (Enterococcus sp.; inoculum 5×10^5 CFU/mL, strain GC 4552): 8 mg/L (≈ 5.82 µM)
- MIC Enterococcus faecalis (GC 4553) (Enterococcus sp.; inoculum 5×10^5 CFU/mL, strain GC 4553): 8 mg/L (≈ 5.82 µM)
- MIC Enterococcus faecalis (GC 4554) (Enterococcus sp.; inoculum 5×10^5 CFU/mL, strain GC 4554): 8 mg/L (≈ 5.82 µM)
- MIC Enterococcus faecium (GC 4556) (Enterococcus sp.; inoculum 5×10^5 CFU/mL, strain GC 4556): 4 mg/L (≈ 2.91 µM)
- MIC Enterococcus faecium (GC 4557) (Enterococcus sp.; inoculum 5×10^5 CFU/mL, strain GC 4557): 4 mg/L (≈ 2.91 µM)
- MIC Enterococcus avium (GC 4558) (Enterococcus sp.; inoculum 5×10^5 CFU/mL, strain GC 4558): 8 mg/L (≈ 5.82 µM)
- MIC Enterococcus faecalis (GC 6189) (Enterococcus sp.; inoculum 5×10^5 CFU/mL, strain GC 6189): 8 mg/L (≈ 5.82 µM)
- MIC Streptococcus agalactiae (GC 4564) (Streptococcus sp.): 1 mg/L (≈ 0.727 µM)
- MIC Streptococcus pneumoniae (ATCC 6301) (Streptococcus sp.): 0.5 mg/L (≈ 0.364 µM)
- MIC Streptococcus pneumoniae (GC 1894) (Streptococcus sp.): 0.12 mg/L (≈ 0.0872 µM)
- MIC Streptococcus pneumoniae (GC 4565) (Streptococcus sp.): 0.25 mg/L (≈ 0.182 µM)
- MIC Streptococcus pyogenes (GC 4563) (Streptococcus sp.): 0.5 mg/L (≈ 0.364 µM)
- MIC Streptococcus pneumoniae (ATCC 6301) (Streptococcus sp.; inoculum 5×10^5 CFU/mL, strain ATCC 6301): 0.5 mg/L (≈ 0.364 µM)
- MIC Streptococcus pneumoniae (GC 1894) (Streptococcus sp.; inoculum 5×10^5 CFU/mL, strain GC 1894): 0.12 mg/L (≈ 0.0872 µM)
- MIC Streptococcus pyogenes (GC 4563) (Streptococcus sp.; inoculum 5×10^5 CFU/mL, strain GC 4563): 0.5 mg/L (≈ 0.364 µM)
- MIC Streptococcus agalactiae (GC 4564) (Streptococcus sp.; inoculum 5×10^5 CFU/mL, strain GC 4564): 1 mg/L (≈ 0.727 µM)
- MIC Streptococcus pneumoniae (GC 4565) (Streptococcus sp.; inoculum 5×10^5 CFU/mL, strain GC 4565): 0.25 mg/L (≈ 0.182 µM)
- MIC Escherichia coli (ATCC 25922) (Escherichia coli): 64 mg/L (≈ 46.5 µM)
- MIC Escherichia coli (GC 4559) (Escherichia coli): 32 mg/L (≈ 23.3 µM)
- MIC Escherichia coli (GC 4560) (Escherichia coli): 2 mg/L (≈ 1.45 µM)
Compound: CC(c1ccccc1)C1NC(=O)CNC(=O)C(CO)NC(=O)C(C(O)C2CNC(=N)N2C2OC(CO)C(O)C(O)C2O)NC(=O)C(C(O)C2CNC(=N)N2)NC(=O)C(Cc2ccc(OC3OC(CO)C(OC4OC5COC6(CCCCC6)OC5C(O)C4O)C(O)C3O)cc2)NC1=O (centres unmarked) [Example 203]
- MIC Staphylococcus haemolyticus (GC 4546) (Staphylococcus sp.; strain GC 4546): 1 mg/L (≈ 0.727 µM)
